Source: PMC10003956, “To the Understanding of Catalysis by D-Amino Acid Transaminases: A Case Study of the Enzyme from Aminobacterium colombiense” (Molecules, 2023)

How the values were obtained:
AmicoTA [1] = target: T1, AmicoTA (Aminobacterium colombiense, UniProt D5EHC5); assay: half-reaction of PLP form, absorbance at […] nm; assay type: binding
T1 construct: gene Amico_1844; N-terminal His6-TEV tag kept for kinetics, cut for crystals; E. coli Rosetta (DE3) pLysS

AmicoTA [2] = target: T1, AmicoTA; assay: X-ray crystal structure, […] Å; assay type: binding; details: covalent, Schiff base with K142; tag-free protein

T1 sequence (D5EHC5 entry or part of it): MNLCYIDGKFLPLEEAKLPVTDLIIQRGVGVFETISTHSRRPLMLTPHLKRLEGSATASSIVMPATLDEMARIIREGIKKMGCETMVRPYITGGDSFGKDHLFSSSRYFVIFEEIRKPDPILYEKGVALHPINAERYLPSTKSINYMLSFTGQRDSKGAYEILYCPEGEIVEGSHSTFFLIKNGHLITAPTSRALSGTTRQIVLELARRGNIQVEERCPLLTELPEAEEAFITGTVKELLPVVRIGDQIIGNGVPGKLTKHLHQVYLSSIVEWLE

SMILES | Kd (AmicoTA [1]) [mM] | X-ray crystal structure, 1.9 Å (AmicoTA [2])
C[C@@H](N)C(=O)O [D-alanine] | 50 ± 6 | 
N[C@H](CCC(=O)O)C(=O)O [D-glutamate] | 2.1 ± 0.2 | 
CC(C)C[C@@H](N)C(=O)O [D-leucine] | 100 ± 10 | 
N[C@H](Cc1ccccc1)C(=O)O [D-phenylalanine] | 19 ± 3 | 
Cc1ncc(COP(=O)(O)O)c(C=O)c1O [PLP] |  | bound via Schiff base linkage with K142
